Converted amounts (≈) assume the structure as drawn.
Test system: Mus musculus
Test: Tested for the antimicrobial activity against Streptococcus pyogenes (ST139) in mice, subcutaneously
Type: functional
Conditions: sc

SMILES | ED50 [mg/kg]
CC1(C)SC2C(NC(=O)C(N)c3ccc4c(c3)OCO4)C(=O)N2C1C(=O)O (configuration not stated) | 0.06

Test system: Streptococcus pyogenes
Test: Tested for inhibition of visible growth of Streptococcus pyogenes
Type: functional
Conditions: not given

MIC [µg/mL] | SMILES
0.1 (≈ 0.223 µM) | CC(=O)OCC1=C(C(=O)O)N2C(=O)C(NC(=O)C(O)c3ccc4c(c3)CCO4)C2SC1 (racemic)
0.1 (≈ 0.264 µM) | CC1(C)S[C@@H]2[C@H](NC(=O)C(C(=O)O)c3ccccc3)C(=O)N2[C@H]1C(=O)O (some centres not stated) [CARBENICILLIN]
≤ 0.03 | CC1(C)SC2C(NC(=O)C(N)c3ccc4c(c3)OCO4)C(=O)N2C1C(=O)O (configuration not stated)

Organism: Mus musculus
Test: Tested for the antimicrobial activity against Streptococcus pyogenes (St141) in mice, perorally
Type: functional
Conditions: po

SMILES | ED50 [mg/kg]
CC1(C)SC2C(NC(=O)C(N)c3ccc4c(c3)OCO4)C(=O)N2C1C(=O)O (configuration not stated) | 0.22

Test system: Klebsiella pneumoniae
Test: Tested for inhibition of visible growth of Klebsiella pneumoniae
Type: functional
Conditions: not given

MIC [µg/mL] | SMILES
50 (≈ 111 µM) | CC(=O)OCC1=C(C(=O)O)N2C(=O)C(NC(=O)C(O)c3ccc4c(c3)CCO4)C2SC1 (racemic)
6.2 (≈ 16.4 µM) | CC1(C)S[C@@H]2[C@H](NC(=O)C(C(=O)O)c3ccccc3)C(=O)N2[C@H]1C(=O)O (some centres not stated) [CARBENICILLIN]
6.2 (≈ 15.8 µM) | CC1(C)SC2C(NC(=O)C(N)c3ccc4c(c3)OCO4)C(=O)N2C1C(=O)O (configuration not stated)

Test system: Mus musculus
Test: Tested for the antimicrobial activity against Streptococcus pneumoniae (D137) in mice, subcutaneously
Type: functional
Conditions: sc

SMILES | ED50 [mg/kg]
CC1(C)SC2C(NC(=O)C(N)c3ccc4c(c3)OCO4)C(=O)N2C1C(=O)O (configuration not stated) | 0.16

Test system: Staphylococcus aureus
Test: Tested for inhibition of visible growth of Staphylococcus aureus
Type: functional
Conditions: not given

MIC [µg/mL] | SMILES
3.1 (≈ 6.91 µM) | CC(=O)OCC1=C(C(=O)O)N2C(=O)C(NC(=O)C(O)c3ccc4c(c3)CCO4)C2SC1 (racemic)
25 (≈ 66.1 µM) | CC1(C)S[C@@H]2[C@H](NC(=O)C(C(=O)O)c3ccccc3)C(=O)N2[C@H]1C(=O)O (some centres not stated) [CARBENICILLIN]
100 (≈ 254 µM) | CC1(C)SC2C(NC(=O)C(N)c3ccc4c(c3)OCO4)C(=O)N2C1C(=O)O (configuration not stated)

Test system: Mus musculus
Test: Tested for the antimicrobial activity against Streptococcus pneumoniae (D815) in mice, subcutaneously
Type: functional
Conditions: sc

SMILES | ED50 [mg/kg]
CC1(C)SC2C(NC(=O)C(N)c3ccc4c(c3)OCO4)C(=O)N2C1C(=O)O (configuration not stated) | 0.078

Organism: Mus musculus
Test: Tested for the antimicrobial activity against Streptococcus pyogenes (ST139) in mice, perorally
Type: functional
Conditions: po

SMILES | ED50 [mg/kg]
CC1(C)SC2C(NC(=O)C(N)c3ccc4c(c3)OCO4)C(=O)N2C1C(=O)O (configuration not stated) | 0.29

Test system: Mus musculus
Test: Tested for the antimicrobial activity against Staphylococcus aureus (M202) in mice, subcutaneously
Type: functional
Conditions: sc

SMILES | ED50 [mg/kg]
CC1(C)SC2C(NC(=O)C(N)c3ccc4c(c3)OCO4)C(=O)N2C1C(=O)O (configuration not stated) | 0.53

Test system: Proteus mirabilis
Test: Tested for inhibition of visible growth of Proteus mirabilis
Type: functional
Conditions: not given

MIC [µg/mL] | SMILES
50 (≈ 111 µM) | CC(=O)OCC1=C(C(=O)O)N2C(=O)C(NC(=O)C(O)c3ccc4c(c3)CCO4)C2SC1 (racemic)
0.8 (≈ 2.11 µM) | CC1(C)S[C@@H]2[C@H](NC(=O)C(C(=O)O)c3ccccc3)C(=O)N2[C@H]1C(=O)O (some centres not stated) [CARBENICILLIN]
25 (≈ 63.5 µM) | CC1(C)SC2C(NC(=O)C(N)c3ccc4c(c3)OCO4)C(=O)N2C1C(=O)O (configuration not stated)

Test system: Enterobacter cloacae
Test: Tested for inhibition of visible growth of Enterobacter cloacae
Type: functional
Conditions: not given

MIC [µg/mL] | SMILES
> 200 | CC(=O)OCC1=C(C(=O)O)N2C(=O)C(NC(=O)C(O)c3ccc4c(c3)CCO4)C2SC1 (racemic)
6.2 (≈ 16.4 µM) | CC1(C)S[C@@H]2[C@H](NC(=O)C(C(=O)O)c3ccccc3)C(=O)N2[C@H]1C(=O)O (some centres not stated) [CARBENICILLIN]
> 100 | CC1(C)SC2C(NC(=O)C(N)c3ccc4c(c3)OCO4)C(=O)N2C1C(=O)O (configuration not stated)

Organism: Mus musculus
Test: Tested for the antimicrobial activity against Staphylococcus aureus (M240) in mice, perorally
Type: functional
Conditions: po

SMILES | ED50 [mg/kg]
CC1(C)SC2C(NC(=O)C(N)c3ccc4c(c3)OCO4)C(=O)N2C1C(=O)O (configuration not stated) | 0.32

Test system: Klebsiella aerogenes
Test: Tested for inhibition of visible growth of Enterobacter aerogenes
Type: functional
Conditions: not given

MIC [µg/mL] | SMILES
> 200 | CC(=O)OCC1=C(C(=O)O)N2C(=O)C(NC(=O)C(O)c3ccc4c(c3)CCO4)C2SC1 (racemic)
6.2 (≈ 16.4 µM) | CC1(C)S[C@@H]2[C@H](NC(=O)C(C(=O)O)c3ccccc3)C(=O)N2[C@H]1C(=O)O (some centres not stated) [CARBENICILLIN]
> 100 | CC1(C)SC2C(NC(=O)C(N)c3ccc4c(c3)OCO4)C(=O)N2C1C(=O)O (configuration not stated)

Organism: Mus musculus
Test: Tested for the antimicrobial activity against Streptococcus pneumoniae (D815) in mice, perorally
Type: functional
Conditions: po

SMILES | ED50 [mg/kg]
CC1(C)SC2C(NC(=O)C(N)c3ccc4c(c3)OCO4)C(=O)N2C1C(=O)O (configuration not stated) | 0.25

Test system: not listed separately
Test: Tested for inhibition of visible growth of Salmonella schottmuelleri
Type: functional
Conditions: not given

MIC [µg/mL] | SMILES
12.5 (≈ 27.9 µM) | CC(=O)OCC1=C(C(=O)O)N2C(=O)C(NC(=O)C(O)c3ccc4c(c3)CCO4)C2SC1 (racemic)
6.2 (≈ 16.4 µM) | CC1(C)S[C@@H]2[C@H](NC(=O)C(C(=O)O)c3ccccc3)C(=O)N2[C@H]1C(=O)O (some centres not stated) [CARBENICILLIN]
1.6 (≈ 4.07 µM) | CC1(C)SC2C(NC(=O)C(N)c3ccc4c(c3)OCO4)C(=O)N2C1C(=O)O (configuration not stated)

Test system: Enterococcus faecalis
Test: Tested for inhibition of visible growth of Streptococcus faecalis
Type: functional
Conditions: not given

MIC [µg/mL] | SMILES
> 200 | CC(=O)OCC1=C(C(=O)O)N2C(=O)C(NC(=O)C(O)c3ccc4c(c3)CCO4)C2SC1 (racemic)
> 100 | CC1(C)S[C@@H]2[C@H](NC(=O)C(C(=O)O)c3ccccc3)C(=O)N2[C@H]1C(=O)O (some centres not stated) [CARBENICILLIN]
3.1 (≈ 7.88 µM) | CC1(C)SC2C(NC(=O)C(N)c3ccc4c(c3)OCO4)C(=O)N2C1C(=O)O (configuration not stated)

Test system: Mus musculus
Test: Tested for the antimicrobial activity against Streptococcus pyogenes (St141) in mice, subcutaneously
Type: functional
Conditions: sc

SMILES | ED50 [mg/kg]
CC1(C)SC2C(NC(=O)C(N)c3ccc4c(c3)OCO4)C(=O)N2C1C(=O)O (configuration not stated) | 0.13

Test system: Escherichia coli
Test: Tested for inhibition of visible growth of Escherichia coli
Type: functional
Conditions: not given

MIC [µg/mL] | SMILES
50 (≈ 111 µM) | CC(=O)OCC1=C(C(=O)O)N2C(=O)C(NC(=O)C(O)c3ccc4c(c3)CCO4)C2SC1 (racemic)
6.2 (≈ 16.4 µM) | CC1(C)S[C@@H]2[C@H](NC(=O)C(C(=O)O)c3ccccc3)C(=O)N2[C@H]1C(=O)O (some centres not stated) [CARBENICILLIN]
25 (≈ 63.5 µM) | CC1(C)SC2C(NC(=O)C(N)c3ccc4c(c3)OCO4)C(=O)N2C1C(=O)O (configuration not stated)

Test system: Pseudomonas aeruginosa
Test: Tested for inhibition of visible growth of Pseudomonas aeruginosa
Type: functional
Conditions: not given

MIC [µg/mL] | SMILES
0.8 (≈ 2.11 µM) | CC1(C)S[C@@H]2[C@H](NC(=O)C(C(=O)O)c3ccccc3)C(=O)N2[C@H]1C(=O)O (some centres not stated) [CARBENICILLIN]
> 100 | CC1(C)SC2C(NC(=O)C(N)c3ccc4c(c3)OCO4)C(=O)N2C1C(=O)O (configuration not stated)

Test system: Streptococcus pneumoniae
Test: Tested for inhibition of visible growth of Streptococcus pneumoniae
Type: functional
Conditions: not given

MIC [µg/mL] | SMILES
0.1 (≈ 0.223 µM) | CC(=O)OCC1=C(C(=O)O)N2C(=O)C(NC(=O)C(O)c3ccc4c(c3)CCO4)C2SC1 (racemic)
0.4 (≈ 1.06 µM) | CC1(C)S[C@@H]2[C@H](NC(=O)C(C(=O)O)c3ccccc3)C(=O)N2[C@H]1C(=O)O (some centres not stated) [CARBENICILLIN]
≤ 0.03 | CC1(C)SC2C(NC(=O)C(N)c3ccc4c(c3)OCO4)C(=O)N2C1C(=O)O (configuration not stated)

Test system: Staphylococcus aureus
Test: Tested for inhibition of visible growth of Staphylococcus aureus, benzyl-penicillin sensitive
Type: functional
Conditions: not given

MIC [µg/mL] | SMILES
0.8 (≈ 1.78 µM) | CC(=O)OCC1=C(C(=O)O)N2C(=O)C(NC(=O)C(O)c3ccc4c(c3)CCO4)C2SC1 (racemic)
0.4 (≈ 1.06 µM) | CC1(C)S[C@@H]2[C@H](NC(=O)C(C(=O)O)c3ccccc3)C(=O)N2[C@H]1C(=O)O (some centres not stated) [CARBENICILLIN]
0.1 (≈ 0.254 µM) | CC1(C)SC2C(NC(=O)C(N)c3ccc4c(c3)OCO4)C(=O)N2C1C(=O)O (configuration not stated)

Test system: Mus musculus
Test: Tested for the antimicrobial activity against Staphylococcus aureus (M240) in mice, subcutaneously
Type: functional
Conditions: sc

SMILES | ED50 [mg/kg]
CC1(C)SC2C(NC(=O)C(N)c3ccc4c(c3)OCO4)C(=O)N2C1C(=O)O (configuration not stated) | < 0.063

Organism: Mus musculus
Test: Tested for the antimicrobial activity against Streptococcus pneumoniae (D137) in mice, perorally
Type: functional
Conditions: po

SMILES | ED50 [mg/kg]
CC1(C)SC2C(NC(=O)C(N)c3ccc4c(c3)OCO4)C(=O)N2C1C(=O)O (configuration not stated) | 0.35

Organism: Mus musculus
Test: Tested for the antimicrobial activity against Staphylococcus aureus (M202) in mice, perorally
Type: functional
Conditions: po

SMILES | ED50 [mg/kg]
CC1(C)SC2C(NC(=O)C(N)c3ccc4c(c3)OCO4)C(=O)N2C1C(=O)O (configuration not stated) | 0.25
